The record followed here is patent US20240067702A1, “LACTAM-MODIFIED P[…]” (DONGBAO PURPLE STAR (HANGZHOU) BIOPHARMACEUTICAL CO., LTD., priority 2020, published 2024).

The test system of data set [1] is mouse plasma albumin. Description: Plasma protein binding (PPB) test, mouse. Format: in vitro ADME. Also on record: key to PPB % unbound (H/M), M: NA means the plasma-protein binding is too high, and no free drug can be detected under a normal concentration of plasma protein. The following applies: ultracentrifugation. The method, then: (§1) To study the binding of the test compounds to human/mouse plasma albumin.
(§2) 1. Matrix preparation: On the day of the experiment, the plasma was thawed in cold water and centrifuged at 3220 rpm for 5 min to remove all blood clots. The pH of the obtained plasma was measured and adjusted to 7.4±0.1 using 1% phosphoric acid or 1N sodium hydroxide as needed.
(§3) 2. Dilution steps of the test compounds: The test compounds were dissolved in dimethyl sulfoxide (DMSO) to prepare stock solutions at concentrations of 10 mM and 2 mM, respectively. A 40 μM working solution was prepared by diluting 2 μL of the stock solution (2 mM) with 98 μL of DMSO. A 400 μM working solution of the control compound was prepared by diluting 10 μL of the stock solution with 240 μL of DMSO. The working solution of the compound (5 μL) was mixed with the blank matrix (995 μL) at a ratio of 1:200 to prepare the loading matrix.
3.1 An equal amount of 30 μL of the loading matrix (n=2) was transferred to the sample collection plate to prepare samples of time 0 (TO) for residue determination. The samples were immediately matched to the corresponding blank buffer in a final volume of 60 μL with a 1:1 volume ratio of plasma to buffer in each well. Then, 60 μL of 4% H3PO4 in H2O and 480 μL of stop solution containing an internal standard were then added to the TO samples of the test compounds. They were then stored at 2-8° C. with other samples pending for further processing.
3.2 The remaining plasma samples were pre-incubated in a carbon dioxide incubator at 37±1° C. for 30 min. The prepared protein-free samples (F samples) and loading matrix samples (230 μL) were transferred to polycarbonate tubes (n=2) and ultracentrifuged at 37° C. and 155000×g (35000 rpm) for 4 hours.
3.3 To prepare T samples (test samples), an additional matrix-containing sample was transferred to a separate 96-well plate (sample incubation plate) and incubated at 37° C. for 4 hours.
3.4 After centrifugation, 30 μL of protein-free sample and 30 μL of T sample were transferred from the second layer of supernatant (below the upper layer) to a new sample collection plate. Each sample was mixed with the corresponding blank buffer or matrix in a final volume of 60 μL with a matrix:buffer volume ratio of 1:1. 60 μL of 4% H3PO4 aqueous solution and 480 μL of stop solution (containing internal standard) were added to all samples. The mixture was centrifuged at 4000 rpm for 20 min, and 100 μL of the supernatant of each sample was taken for LC-MS/MS analysis.

The subject of data set [2] is human plasma albumin. Description: Plasma protein binding (PPB) test, human. Also on record: key: NA means the plasma-protein binding is too high, and no free drug can be detected under a normal concentration of plasma protein. The settings on record: ultracentrifugation. It is filed as in vitro ADME. Here is the method: as §1, §2, §3
3.1 An equal amount of 30 μL of the loading matrix (n=2) was transferred to the sample collection plate to prepare samples of time 0 (TO) for residue determination. The samples were immediately matched to the corresponding blank buffer in a final volume of 60 μL with a 1:1 volume ratio of plasma to buffer in each well. Then, 60 μL of 4% H3PO4 in H2O and 480 μL of stop solution containing an internal standard were then added to the TO samples of the test compounds. […]

A short description of data set [3]: Pharmacokinetic evaluation in cynomolgus monkeys. The settings on record: cynomolgus monkey, plasma, 0.02 mg/kg, single SC 0.02 mpk. Format: in vivo. The method, then:
To test the pharmacokinetics of compounds in cynomolgus monkeys in vivo
The pharmacokinetic characteristics of the compounds in mammals after intravenous injection and subcutaneous injection were tested according to the standard protocol. In the experiment, the candidate compounds were formulated into clear solutions, and a single subcutaneous injection (SC, 0.02 mpk) was given to the cynomolgus monkeys. The vehicle for subcutaneous injection was citrate buffer (20 mM, pH=7). Whole blood was collected and prepared to obtain plasma. Drug concentration was analyzed by LC-MS/MS method, and pharmacokinetic parameters were calculated by Phoenix WinNonlin software.

The nature of data set [4]: Pharmacokinetic evaluation in C57BL/6 mice. It is filed as in vivo. The settings on record: mouse, plasma, 0.048 mg/kg. The method, then: To test the pharmacokinetics of compounds in C57BL/6 mice in vivo
The pharmacokinetic characteristics of the compounds in rodents after intravenous injection and subcutaneous injection were tested according to the standard protocol. In the experiment, the candidate compounds were formulated into clear solutions, and a single intravenous injection (IV, 0.048 mpk) and subcutaneous injection (SC, 0.048 mpk) were given to the mice. The vehicle for intravenous injection was PBS buffer (pH=7), and the vehicle for subcutaneous injection was citrate buffer (20 mM, pH=7). Whole blood was collected and prepared to obtain plasma. Drug concentration was analyzed by LC-MS/MS method, and pharmacokinetic parameters were calculated by Phoenix WinNonlin software.

Data set [5] in a line: Plasma stability (PLS) test, human plasma. Format: in vitro ADME. The settings on record: pH 7.4, 37° C., up to 120 min, read-out: PLS (H/M) T1/2, H.

Molecules are shown by their SMILES. *1 amine or outer side, *2 acyl side, *3 side chain or, on linkers, in order; H or OH if unused. Where a SMILES comes first, the peptide text is derived from it. Bridges are numbered along the chain shown (N, C = ends). Side-chain parts run from the residue outwards. [ ]: non-standard residue; d: D form. The star is where a group is joined. C20 diacid = O=C(O)CCCCCCCCCCCCCCCCCCC(=O)*; γGlu = O=C(O)[C@H](CCC(=O)[*:2])N[*:1]; AEEA = NCCOCCOCC(=O)O; Aib = CC(C)(N)C(=O)O

In general, Cmax refers to the highest concentration seen after dosing. In general, Tmax refers to the time at which the peak concentration occurs. The term clearance denotes the volume of plasma or blood freed of the substance per unit of time. By bioavailability is commonly meant the share of a dose that reaches the circulation, judged against a reference dose that is usually intravenous. As to `CC[C@H](C)[C@H](NC(=O)[C@H](CC(C)C)NC(=O)[C@H](Cc1c[nH]c2ccccc12)NC(=O)[C@@H]1CCC(=O)NCCCC[C@H](NC(=O)[C@H](CCC(N)=O)NC(=O)[C@H](C)NC(=O)[C@H](CCCCNC(=O)COCCOCCNC(=O)COCCOCCNC(=O)CC[C@H](NC(=O)CCCCCCCCCCCCCCCCCCC(=O)O)C(=O)O)NC(=O)[C@H](CCCCN)NC(=O)[C@H](CC(=O)O)NC(=O)[C@H](CC(C)C)NC(=O)C(C)(C)NC(=O)[C@@H](NC(=O)[C@H](CO)NC(=O)[C@H](Cc2ccc(O)cc2)NC(=O)[C@H](CC(=O)O)NC(=O)[C@H](CO)NC(=O)[C@@H](NC(=O)[C@H](Cc2ccccc2)NC(=O)[C@@H](NC(=O)CNC(=O)[C@H](CCC(=O)O)NC(=O)C(C)(C)NC(=O)[C@@H](N)Cc2ccc(O)cc2)[C@@H](C)O)[C@@H](C)O)[C@@H](C)CC)C(=O)N[C@@H](C)C(=O)N[C@@H](Cc2ccccc2)C(=O)N[C@@H](C(C)C)C(=O)N1)C(=O)N[C@@H](C)C(=O)NCC(=O)NCC(=O)N1CCC[C@H]1C(=O)N[C@@H](CO)C(=O)N[C@@H](CO)C(=O)NCC(=O)N[C@@H](C)C(=O)N1CCC[C@H]1C(=O)N1CCC[C@H]1C(=O)N1CCC[C@H]1C(=O)N[C@@H](CO)C(N)=O` [WX-001] (H-Y[Aib]EGTFTSDYSI[Aib]LDKK([AEEA-AEEA-γGlu-C20 diacid])AQKAFVEWLIAGGPSSGAPPPS-NH2; lactam 20-24), the “PPB % unbound (H/M), M” value in data set [1] was “NA/NA”. Besides, the “PPB % unbound (H/M), H” value in data set [2] is listed as “NA/NA”. Besides, the highest concentration (Cmax) in data set [3] amounted to 30 nM. For the same molecule, in data set [3], the Tmax was 21 h. Further, the half-life in data set [3] (read-out: Half-life T1/2 (converted)) was 80 h; in data set [4] (0.048 mpk IV/SC, read-out: Half-life T1/2 (converted)), 15.5 h. For the same molecule, the AUC(0-t) was 3.97 µM·h in data set [3] (read-out: SC Concentration Integral AUC0-240 h) and 1.55 µM·h in data set [4] (SC 0.048 mpk, read-out: SC Concentration Integral AUC0-72 h). This molecule gave a clearance in data set [4] (IV 0.048 mpk) of 5.28 mL/h/kg. Also, the bioavailability in data set [4] (subcutaneous, SC 0.048 mpk vs IV 0.048 mpk, read-out: Bioavailability F) was determined as 85.5%. In addition, the half-life at 2 μM in data set [5] was > 4.82 h.
